Series [1] has as its system STEP61. Briefly: Knockdown of STEP protein by RNAi in cultured cortical neurons (Western blot). The class given is cell-based, rat. The protocol: Single stranded interfering RNA molecules (RNAi) were designed to be complementary to the sequence of STEP by standard means. The sequence used was 5′ AAACAUGCGAACAGUAUCAGU 3′. A standard scrambled RNA molecule of sequence 5′-CAG TCG CGT TTG CGA CTG G-3′ was used as a control. Dissociated cortical neurons were prepared from E18 rat embryos by standard protocols. The dissociated neurons were mixed with 90 ul of rat Nucleofector solution to give a final concentration of 4.8×10^6 cells/90 ul. The cells were mixed with 20 ug of RNAi and transferred to an electroporation cuvette. Using an AMAXA Nucleofector cells were electroporated using standard settings. Cells were transferred from the electroporation cuvette to poly-D-lysine coated 96 well plates for calcium flux assays or 6 well plates for Western blotting procedures and grown in standard neuronal media at 37° C. with 5% CO2 for 4 days.
Knockdown of endogenous STEP protein levels was visualized by Western blotting. Four days after electroporation cells were harvested and lysed with lysis buffer (150 mM NaCl, 50 mM Tris pH 7.6, 1% triton, in the presence of a protease inhibitor cocktail and 1 mM sodium orthovanadate) on ice. […] Levels of STEP protein were determined by Western blotting using anti-STEP antibodies (FIG. 6).
On the technique in general: In western blotting, separated proteins are transferred to a membrane and probed.

The subject of series [2] is NMDA receptors. Put plainly: NMDA mediated calcium influx in cultured cortical neurons after RNAi (FLEXstation). In kind it is cell-based, rat. Conditions: 1 μM NMDA, four days after transfection, versus scrambled RNA molecule.
The subject of series [3] is NMDA receptors (NR1, NR2A, NR2B). Put plainly: Surface expression of NMDA receptor subunits in neurons (biotinylation, Western blot). In kind it is cell-based. The source says: (§1) Interfering RNA molecules were introduced into neurons by AMAXA nucleofection. To specifically knockdown STEP the oligo used had the sequence 5′-[…]-3′, a control siRNA that is predicted not to knock down levels of any gene products (sequence 5′-[…]-3′ was also used (Dharmacon, Lafayette, Colo.). Interfering RNA molecules were introduced into neurons using the AMAXA nucleofection technique (AMAXA, Gaithersburg, Md.) using the manufacturers protocol. Neurons were allowed to grow in culture for 3-4 days prior to experimental procedures.
(§2) Neurons were washed with ice cold PBS. Sulfo-NHS-LC-Biotin (Pierce Biotechnology, Rockford, Ill.) was dissolved at 1.5 mg/ml in ice cold PBS and incubated with the cells for 1 hour at […]. Excess biotin was washed off the cells with ice cold PBS and cells lysed and harvested as above. […] of protein lysate was incubated with 100 μl of neutravadin agarose slurry (Pierce Biotechnology) overnight at […]. The complexes were washed thoroughly and proteins eluted from the beads by resuspension in SDS loading buffer and boiling for 10 mins. Proteins were loaded on 8% Tris-gicine gels and separated by SDS-PAGE. Western blotting was performed by standard means using the indicated antibodies.

In series [4] the test system is EGF receptors. Briefly: Surface expression of EGF receptors in neurons (biotinylation, Western blot). In kind it is cell-based. The note with it: versus RNAi-Scrambled.
Text: as §1, §2

Series [5] concerns GluR1 subunit of AMPA receptors. Briefly: Surface expression of AMPA receptor GluR1 subunit in neurons (biotinylation, Western blot). The class given is cell-based. The note with it: versus RNAi-Scrambled.
Text: as §1, §2

Series [6] has as its system GABAA receptor b subunit. Briefly: Surface expression of GABAA receptor b subunit in neurons (biotinylation, Western blot). The class given is cell-based. The note with it: versus RNAi-Scrambled.
Text: as §1, §2

In series [7] the test system is NMDA receptor / ERK phosphorylation. Put plainly: NMDAR mediated ERK phosphorylation in cultured cortical neurons (Western blot). In kind it is cell-based. The protocol: […] SDS-PAGE was performed and western blotting used to detect ERK phosphorylation levels.
ERK phosphorylation in cultured cortical neurons (10-13 division) can be elicited by activation of NMDARs.

Entries after “also recorded” stand apart in the source; their conditions may differ.

As for “5′ AAACAUGCGAACAGUAUCAGU 3′ (guide AAACAUGCGAACAGUAUCAGU; siRNA; RNA, backbone and methylation of C not given here; single-stranded interfering RNA) [RNAi-STEP]”, in series [1] (cultured cortical neurons, four days after transfection, versus scrambled RNA molecule), the “levels of STEP61 protein” value was “lower levels of STEP61 protein”. Further, the “STEP levels in the total protein lysate” value in series [1] (neurons, AMAXA nucleofection, relative to RNAi-Scrambled) was “knocked down”. In series [2], the “Ca influx elicited by application of NMDA” value is “increase in NMDA receptor mediated Ca influx”. The “Ca influx elicited by application of NMDA” value in series [2] (listed as inhibitory RNA to STEP) was “larger NMDA response”. Further, the “total levels of each subunit” value in series [3] (RNAi-STEP or RNAi-Scrambled) is listed as “the same”. In addition, in series [3] (versus RNAi-Scrambled), the “levels of surface NR1” value was “increased”, the “levels of surface NR2A” value is on record as “increased” and the “levels of surface NR2B” value is reported as “increased”. In addition, the “surface levels of EGF receptors” value in series [4] is “unaffected”. Further, the “surface levels of the GluR1 subunit of AMPA receptors” value in series [5] is “unaffected”. For the same molecule, the “surface levels of the GABAA receptor b subunit” value in series [6] was “unaffected”.
With `N[C@H](CCCP(=O)(O)O)C(=O)O` [D-APV, D-2-amino-5-phosphonopentanoic acid], the “NMDA stimulated ERK phosphorylation” value in series [7] (D-APV 200 μM, stimulation with 100 μM NMDA for 5 minutes) is given as “blocked; also recorded: inhibits”.
`CN[C@H](CC(=O)O)C(=O)O` [NMDA, N-methyl-D-aspartate]: in series [7] (100 μM NMDA for 5 minutes, cultured cortical neurons (10-13 division)), the ERK phosphorylation levels entry is listed as “significant ERK phosphorylation; also recorded: significantly increased”.

The values above are taken from patent publication US20050221411A1, “Interaction of NMDA receptor with the protein tyrosine phosphatase step in psychotic disorders” (AGY Therapeutics, Inc., priority 2003, published 2005).
